Patent US8686050B2, “Diglycidic ether derivative therapeutics and methods for their use” (British Columbia Cancer Agency Branch, priority 2008, dated 2014)
Entries after “also recorded” stand apart in the source; their conditions may differ. Structures can show the parent of a compound that is named as a salt.

Experiments:
PSA mRNA = test: Endogenous PSA mRNA in LNCaP cells by QRT-PCR; type: cell-based, human; conditions: 185-9-2 5 μg/ml, R1881 1 nM 16 hours, normalized to GAPDH mRNA
Experimental: Induction of PSA mRNA by both R1881 (ligand-dependent) and FSK (ligand-independent) in LNCaP cells is dependent upon AR (Sadar, M. D., J. Biol. Chem. 274, 7777-7783 (1999); Wang G, Jones S J, Marra M A, Sadar M D, Oncogene 2006; 25:7311-23.). To test whether the compounds have an effect on endogenous gene expression, the levels of PSA mRNA in LNCaP cells exposed to R1881 were measured. LNCaP cells (in serum-free and phenol-red free media) were incubated with compounds for 1 hour before the addition of R1881 (1 nM) for an additional 16 hours before harvesting and isolating total RNA. Levels of mRNA were measured using QPCR. Levels of PSA mRNA were normalized to levels of GAPDH mRNA.

[1] = target: T1, AR interaction with the ARE on the PSA enhancer (Homo sapiens, UniProt P10275, T878A); test: ChIP of AR on the PSA enhancer ARE in LNCaP cells; type: cell-based; conditions: DHT 3 h or 16 h, 185-9-2 10 μg/ml
T1 construct: LNCaP cells express endogenous AR and secrete prostate-specific antigen (PSA); endogenous in cells; host or cells: LNCaP
T1 sequence (P10275 1-920 T878A): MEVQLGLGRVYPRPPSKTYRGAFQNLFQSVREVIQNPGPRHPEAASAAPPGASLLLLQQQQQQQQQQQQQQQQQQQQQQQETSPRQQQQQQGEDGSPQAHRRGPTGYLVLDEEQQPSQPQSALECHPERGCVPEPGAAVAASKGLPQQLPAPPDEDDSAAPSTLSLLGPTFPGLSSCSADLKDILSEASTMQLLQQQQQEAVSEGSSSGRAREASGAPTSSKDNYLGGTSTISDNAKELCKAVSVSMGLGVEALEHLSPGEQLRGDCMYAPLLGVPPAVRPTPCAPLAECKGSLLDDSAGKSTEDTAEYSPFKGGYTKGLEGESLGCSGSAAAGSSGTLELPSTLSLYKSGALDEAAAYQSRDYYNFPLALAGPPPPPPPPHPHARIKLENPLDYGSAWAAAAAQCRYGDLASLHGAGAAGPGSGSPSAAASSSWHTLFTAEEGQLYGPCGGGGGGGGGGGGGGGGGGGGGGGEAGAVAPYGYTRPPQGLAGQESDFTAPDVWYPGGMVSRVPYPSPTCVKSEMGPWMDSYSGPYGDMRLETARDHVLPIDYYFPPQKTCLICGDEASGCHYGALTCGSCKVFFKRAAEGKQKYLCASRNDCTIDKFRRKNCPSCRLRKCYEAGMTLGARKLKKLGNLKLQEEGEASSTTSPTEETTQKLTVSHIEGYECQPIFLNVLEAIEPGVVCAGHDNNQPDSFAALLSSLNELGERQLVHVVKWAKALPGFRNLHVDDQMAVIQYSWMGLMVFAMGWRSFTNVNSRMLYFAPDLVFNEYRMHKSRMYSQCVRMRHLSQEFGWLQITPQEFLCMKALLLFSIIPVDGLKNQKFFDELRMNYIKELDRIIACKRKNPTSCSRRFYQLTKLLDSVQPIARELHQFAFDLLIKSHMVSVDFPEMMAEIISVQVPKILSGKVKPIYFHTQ

[2] = target: T2, VP16-ARTAD and Gal4-ARLBD (Homo sapiens, UniProt P10275); test: N/C interaction, mammalian two-hybrid in CV1 cells; type: cell-based; conditions: R1881, 24 hr, 185-9-2 10 μg/ml, bicalutamide 10 μM
T2 construct: amino acids 1-565 of the AR NTD fused to VP16 at the N-terminus; the LBD of the AR (amino acids 628-919; Gal4-ARLBD; the C terminus); expressed in transfected cells; host or cells: CV1
T2 sequence (P10275 1-565): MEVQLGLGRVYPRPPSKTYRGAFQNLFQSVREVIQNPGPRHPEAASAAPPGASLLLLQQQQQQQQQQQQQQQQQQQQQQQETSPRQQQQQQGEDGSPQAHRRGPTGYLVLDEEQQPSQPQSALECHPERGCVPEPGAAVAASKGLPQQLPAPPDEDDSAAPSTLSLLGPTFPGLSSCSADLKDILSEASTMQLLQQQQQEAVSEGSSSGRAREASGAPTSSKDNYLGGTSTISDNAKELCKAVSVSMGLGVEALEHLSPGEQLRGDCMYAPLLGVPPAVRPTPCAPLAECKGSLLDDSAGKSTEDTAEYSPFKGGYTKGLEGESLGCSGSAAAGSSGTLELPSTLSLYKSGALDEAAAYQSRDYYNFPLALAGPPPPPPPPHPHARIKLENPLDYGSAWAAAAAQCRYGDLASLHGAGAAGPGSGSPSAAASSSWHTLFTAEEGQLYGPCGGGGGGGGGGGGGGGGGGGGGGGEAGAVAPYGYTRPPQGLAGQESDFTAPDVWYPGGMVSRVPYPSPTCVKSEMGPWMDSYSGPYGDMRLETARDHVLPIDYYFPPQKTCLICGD

LNCaP cells = test: Androgen-dependent proliferation of LNCaP cells (BrdU incorporation); type: cell-based, human; conditions: R1881 0.1 nM, 4 days; 185-9-2 5 μg/ml, bicalutamide 10 μM
Experimental: The prostate gland is an androgen-dependent organ where androgens are the predominant mitogenic stimulus (Isaacs J T, Scott W W, Coffey D S., Prog Clin Biol Res. 1979; 33:133-44). This dependency on androgens provides the underlying rationale for treating prostate cancer with chemical or surgical castration. […] BrdU incorporation was measured 4 days later to indicate changes in proliferation in response to androgen (FIG. 12). […] Cancer Inst. Monogr. 49, 17-21).

AR [3] = target: T3, AR (Homo sapiens, UniProt P10275, T878A); test: Western blot of AR protein in LNCaP whole cell lysates; type: cell-based; set-up: LNCaP cells express endogenous AR and secrete prostate-specific antigen (PSA); endogenous in cells; host or cells: LNCaP
T3 sequence (P10275 1-920 T878A): T1 sequence (P10275 1-920 T878A)

AR [4] = target: T3, AR; test: Nuclear translocation of AR in LNCaP cells (fractionation, fluorescence microscopy); type: cell-based; set-up: LNCaP cells express endogenous AR and secrete prostate-specific antigen (PSA); endogenous in cells; host or cells: LNCaP

Question: How did the “endogenous PSA mRNA induction by R1881” value (PSA mRNA) turn out when `CC(C)(c1ccc(OCC(O)CO)cc1)c1ccc(OCC(O)CCl)cc1` (centres unmarked) [185-9-2, BADGE.HCL.H2O] was run?
Answer: Its value is “to almost baseline levels; also recorded: inhibited endogenous PSA gene expression”.

Question: What about the “AR interaction with the ARE on the PSA enhancer in response to androgen (ChIP)” value [1] of the same molecule?
Answer: The value was “inhibited AR interaction with the ARE”.

Question: What about the “androgen-stimulated N/C interaction” value [2] of the same molecule?
Answer: The value was “inhibit androgen-stimulated N/C interaction”.

Question: And the “androgen-dependent proliferation of LNCaP cells (BrdU incorporation)” value (LNCaP cells)?
Answer: The value was “blocked androgen-dependent proliferation; also recorded: as effective as bicalutamide”.

Question: What about the “levels of AR protein in whole cell extracts” value (AR [3]; LNCaP cells treated 3 or 16 hours) of the same molecule?
Answer: Its value is “does NOT decrease levels of AR protein; also recorded: not decreased”.

Question: What about the “levels of AR protein, long term incubation” value (AR [3]; LNCaP cells, 48 hrs, presence or absence of DHT) of the same molecule?
Answer: The value was “did not reduce levels of AR protein”.

Question: What about the “nuclear translocation of the AR in the absence of androgen” value (AR [4]; compound on its own) of the same molecule?
Answer: The value was “did not cause nuclear translocation of the AR”.

Question: And the “nuclear translocation of AR protein in response to androgen” value (AR [4]; pretreated 1 hr, 10 nM DHT)?
Answer: Its value is “nor did it prevent nuclear translocation of AR protein”.
